# Measurements from US20050228052A1, “Methods of treating, preventing and managing a sleep disorder using (S)-didesmethylsibutramine” (priority 2004, published 2005).
# Like-named read-outs stand apart in the source and are kept apart here.
# Legend:
# [1] = target: T1, human recombinant norepinephrine (NE) uptake site (Homo sapiens, UniProt P23975); experiment: Binding at the norepinephrine (NE) uptake site
# T1 construct: expressed in transfected cells
# [2] = target: nonselective muscarinic receptor; experiment: Binding at the nonselective muscarinic receptor; set-up: species or system rat
# [3] = target: serotonin (5-HT) uptake site (Rattus norvegicus, UniProt P31652); conditions: summary of the table data
# serotonin (5-HT) uptake site, sequence (P31652 whole entry): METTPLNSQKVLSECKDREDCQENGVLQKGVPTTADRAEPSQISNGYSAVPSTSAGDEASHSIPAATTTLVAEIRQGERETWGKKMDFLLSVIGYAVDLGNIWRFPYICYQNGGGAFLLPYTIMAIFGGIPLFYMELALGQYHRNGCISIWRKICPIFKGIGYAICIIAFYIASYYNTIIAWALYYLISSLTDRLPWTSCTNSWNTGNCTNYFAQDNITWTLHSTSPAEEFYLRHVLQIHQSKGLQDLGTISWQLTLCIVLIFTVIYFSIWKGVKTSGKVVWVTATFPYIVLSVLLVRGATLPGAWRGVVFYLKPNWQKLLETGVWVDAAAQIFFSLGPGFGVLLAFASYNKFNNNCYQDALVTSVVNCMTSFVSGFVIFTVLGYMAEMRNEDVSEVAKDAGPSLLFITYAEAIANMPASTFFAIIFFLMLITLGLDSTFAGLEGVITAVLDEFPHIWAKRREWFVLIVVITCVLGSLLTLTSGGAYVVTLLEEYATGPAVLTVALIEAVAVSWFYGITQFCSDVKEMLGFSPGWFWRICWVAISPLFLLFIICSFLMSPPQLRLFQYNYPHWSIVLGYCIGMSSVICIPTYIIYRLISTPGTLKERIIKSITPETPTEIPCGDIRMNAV
# Protocol: IC50 values (concentration required to inhibit 50% specific binding) were then determined by nonlinear regression analysis of the curves and tabulated below.
# T1 sequence (P23975 whole entry): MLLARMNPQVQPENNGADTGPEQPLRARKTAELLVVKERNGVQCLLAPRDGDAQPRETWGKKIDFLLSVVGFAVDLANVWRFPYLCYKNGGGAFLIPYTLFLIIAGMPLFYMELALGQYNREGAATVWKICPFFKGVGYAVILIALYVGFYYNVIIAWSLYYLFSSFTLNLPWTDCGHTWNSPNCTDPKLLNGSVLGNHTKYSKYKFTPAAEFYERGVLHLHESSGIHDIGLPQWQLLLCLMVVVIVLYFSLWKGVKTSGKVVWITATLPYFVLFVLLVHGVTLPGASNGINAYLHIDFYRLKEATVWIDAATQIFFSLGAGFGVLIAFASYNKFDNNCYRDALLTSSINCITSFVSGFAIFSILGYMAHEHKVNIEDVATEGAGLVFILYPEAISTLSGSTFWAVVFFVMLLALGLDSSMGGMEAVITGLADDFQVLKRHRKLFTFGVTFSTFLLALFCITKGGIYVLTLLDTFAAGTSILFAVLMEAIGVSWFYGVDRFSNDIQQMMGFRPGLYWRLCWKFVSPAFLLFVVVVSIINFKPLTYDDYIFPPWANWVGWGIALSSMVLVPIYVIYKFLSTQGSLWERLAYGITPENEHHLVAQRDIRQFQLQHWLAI
compound,measurement,setting,value
CC(C)C[C@@H](N)C1(c2ccc(Cl)cc2)CCC1 [(R)-DDMS],IC50,[1],13 nM
"CN1[C@@H]2CC[C@H]1C[C@@H](OC(=O)C(CO)c1ccccc1)C2 (stereo partly shown) [Atropine, reference compound]",IC50,"[2]; rat cerebral cortex, inhibition of specific binding, competition curves, read-out: Binding IC50 Values (nM) Mucarinic Receptor",0.31 nM
CC(C)CC(N)C1(c2ccc(Cl)cc2)CCC1 (racemic) [(R/S)-DDMS],IC50,"[1]; human recombinant NE uptake site, single value or first value before slash, read-out: Binding IC50 Values (nM) NE Uptake",16 nM
"CC(C)C[C@H](N)C1(c2ccc(Cl)cc2)CCC1 [(S)-DDMS, 1-[1-(4-chlorophenyl)cyclobutyl]-3-methyl-butylamine]",IC50,[1],6.2 nM
same,"NE uptake site binding, result in words",[1]; summary of the table data,potent inhibitor of NE uptake
same,"5-HT uptake site binding, result in words",[3],without appreciable 5-HT or muscarinic activity
same,"Affinity for the muscarinic site, result in words",[2]; summary of the table data,without appreciable 5-HT or muscarinic activity
